pIC50: −log10 of the molar value. Active and inactive are the calls of the source. The rule behind the calls is not given here.
How the values were obtained:
HCT-116 [1] = assay: Effect on Lig4 expression in wild type human HCT-116 cells assessed as change in protein level at 5 to 10 uM radiated with 4 GY ionizing radiation (IR) measured after 24 hrs by Western blot analysis; assay type: functional, cell-based; settings: dose 5-10 µM
HCT-116 [2] = assay: Induction of ROS generation in human HCT-116 cells assessed as intracellular ROS level at 10 uM under 4GY ionizing radiation (IR) measured after 20 mins by flow cytometry (reference value: 7.2%); assay type: functional
[3] = Induction of 4GY ionizing radiation (IR) induced cell cycle arrest in human HCT-116 cells assessed as accumulation of cells at S phase at 5 uM measured after 24 hrs by Propidium iodide (PI) staining based assay (reference value: 11.48%); assay type: functional
HCT-116 [4] = assay: Induction of apoptosis in human HCT-116 cells assessed as induction of 4GY ionizing radiation (IR) induced cleaved Caspase-9 at 5 uM measured after 24 hrs by Western blot analysis; assay type: functional, cell-based
[5] = Toxicity in BALB/c mouse xenografted with human HCT-116 cells assessed as change in lung weight at 1 to 10 mg/kg, ip every day for 14 days; assay type: organism-based; settings: in vivo, 336 h, dose 1-10 mg/kg, time 14 day
[6] = Toxicity in BALB/c mouse xenografted with human HCT-116 cells assessed as change in body weight at 10 mg/kg, ip every day for 14 days; assay type: organism-based; settings: in vivo, 336 h, time 14 day
HCT-116 [7] = assay: Induction of 4GY ionizing radiation (IR) induced ROS production in human HCT-116 cells assessed as mitochondrial dysfunction by measuring mitochondrial membrane potential loss at 10 uM measured after 24 hrs by JC-1 staining analysis; assay type: functional, cell-based
HCT-116 [8] = assay: Induction of 4GY ionizing radiation (IR) induced apoptosis in human HCT-116 cells assessed as early apoptotic cells at 10 uM measured after 24 hrs by FITC Annexin V/PI apoptosis detection assay (reference value: 17.50%); assay type: functional
HCT-116 [9] = assay: Synergistic cytotoxicity against human SgTDP1-HCT-116 cells (TDP1 knockout) assessed as combination index at 1 uM incubated for 48 hrs in presence of 2GY ionizing radiation; assay type: functional
HCT-116 [10] = assay: In vivo radiosensitizing activity in human HCT-116 cells xenografted in BALB/c mouse assessed as sensitization of 1 GY ionizing radiation induced reduction in tumor weight at 10 mg/kg, ip every day for 14 days radiated for every 2 days once (reference value: 35%); assay type: functional; set-up: scale not given: the % may be the effect or the level left; settings: time 14 day
HCT-116 [11] = assay: Induction of 4GY ionizing radiation (IR) induced ROS production in human HCT-116 cells assessed as mitochondrial dysfunction by measuring mitochondrial membrane potential loss at 10 uM measured after 24 hrs by flow cytometry; assay type: functional, cell-based
[12] = molecular target: T1, Tyrosyl-DNA phosphodiesterase 1 (Homo sapiens, UniProt Q9NUW8); assay: Inhibition of recombinant TDP1 (unknown origin) assessed as substrate cleavage using 5'-Cy5-GATCTAAAAGACTT-pY-3' DNA substrate measured after 15 mins by gel-based assay
HCT-116 [13] = assay: Synergistic cytotoxicity against human HCT116 cells assessed as combination index at 1 uM incubated for 48 hrs in presence of 2GY ionizing radiation (IR); assay type: functional
HCT-116 [14] = assay: In vivo radiosensitizing activity in human HCT-116 cells xenografted in BALB/c mouse assessed as sensitization of 1 GY ionizing radiation induced reduction in tumor weight at 1 mg/kg, ip every day for 14 days radiated for every 2 days once (reference value: 35%); assay type: functional; set-up: scale not given: the % may be the effect or the level left; settings: time 14 day
[15] = AUC infinity in male Sprague-Dawley rat at 1 mg/kg, iv measured up to 24 hrs by LCMS-MS analysis; assay type: ADME, organism-based; settings: in vivo
[16] = Toxicity in BALB/c mouse xenografted with human HCT-116 cells assessed as change in heart weight at 1 to 10 mg/kg, ip every day for 14 days radiated for every 2 days once; assay type: organism-based; settings: in vivo, 336 h, dose 1-10 mg/kg, time 14 day
HCT-116 [17] = assay: Reduction in recruitment of XRCC4 at damage site of human HCT-116 cells at 5 uM radiated with 4 GY ionizing radiation (IR) measured after 3 hrs by fluorescence colocalization assay; assay type: functional, cell-based
HCT-116 [18] = assay: Induction of ionizing radiation (IR) induced gamma-H2AX level in human HCT-116 cells at 5 uM measured after 3 hrs by Western blot analysis; assay type: functional, cell-based
[19] = AUClast in male Sprague-Dawley rat at 1 mg/kg, iv measured up to 24 hrs by LCMS-MS analysis; assay type: ADME, organism-based; settings: in vivo
HCT-116 [20] = assay: Induction of cell cycle arrest in human HCT-116 cells assessed as accumulation of cells at G2/M phase at 10 uM measured after 24 hrs by Propidium iodide (PI) staining based assay (reference value: 15.77%); assay type: functional
[21] = Toxicity in BALB/c mouse xenografted with human HCT-116 cells assessed as change in heart weight at 1 to 10 mg/kg, ip every day for 14 days; assay type: organism-based; settings: in vivo, 336 h, dose 1-10 mg/kg, time 14 day
HCT-116 [22] = assay: Reduction of XRCC4 expression in wild type human HCT-116 cells assessed as reduction in mRNA level at 5 to 10 uM measured after 24 hrs by qRT-PCR analysis; assay type: functional, cell-based; settings: dose 5-10 µM
[23] = molecular target: T1, Tyrosyl-DNA phosphodiesterase 1; assay: Binding affinity to TDP1 in human HCT-116 cells assessed as increase in thermal stability by Cellular Thermal Shift Assay (CETSA); assay type: cell-based
[24] = Toxicity in BALB/c mouse xenografted with human HCT-116 cells assessed as change in kidney weight at 1 to 10 mg/kg, ip every day for 14 days radiated for every 2 days once; assay type: organism-based; settings: in vivo, 336 h, dose 1-10 mg/kg, time 14 day
HCT-116 [25] = assay: Induction of ionizing radiation (IR) induced gamma-H2AX foci in human HCT-116 cells at 5 uM measured after 3 hrs by immunofluorescence assay; assay type: functional, cell-based
HCT-116 [26] = assay: Anti-tumor activity against human HCT-116 cells xenografted in BALB/c mouse assessed as tumor growth inhibition at 1 mg/kg, ip every day for 14 days; assay type: functional, organism-based; settings: time 14.0 day
HCT-116 [27] = assay: Radiosensitizing activity in human HCT-116 cells assessed as induction of 2 GY ionizing radiation (IR) induced cell killing effect; assay type: functional, cell-based
HCT-116 [28] = assay: Induction of apoptosis in human HCT-116 cells assessed as late apoptotic cells at 5 uM measured after 24 hrs by FITC Annexin V/PI apoptosis detection assay (reference value: 0%); assay type: functional
HCT-116 [29] = assay: Downregulation of cell cycle pathway in human HCT-116 cells at 5 uM measured after 24 hrs by KEGG analysis; assay type: functional, cell-based
HCT-116 [30] = assay: In vivo radiosensitizing activity in human HCT-116 cells xenografted in BALB/c mouse assessed as sensitization of 1 GY ionizing radiation induced tumor growth inhibition at 1 mg/kg, ip every day for 14 days radiated for every 2 days once; assay type: functional, organism-based; settings: time 14.0 day
HCT-116 [31] = assay: Induction of 4GY ionizing radiation (IR) induced apoptosis in human HCT-116 cells assessed as late apoptotic cells at 10 uM measured after 24 hrs by FITC Annexin V/PI apoptosis detection assay (reference value: 14.32%); assay type: functional
HCT-116 [32] = assay: Effect on Ku70/80 expression in wild type human HCT-116 cells assessed as change in protein level at 5 to 10 uM measured after 24 hrs by Western blot analysis; assay type: functional, cell-based; settings: dose 5-10 µM
A549 = assay: Radiosensitizing activity in human A549 cells assessed as sensitization of 2 GY ionizing radiation induced decrease in cell survival by colony formation assay; assay type: functional, cell-based

T1 sequence (Q9NUW8 whole entry): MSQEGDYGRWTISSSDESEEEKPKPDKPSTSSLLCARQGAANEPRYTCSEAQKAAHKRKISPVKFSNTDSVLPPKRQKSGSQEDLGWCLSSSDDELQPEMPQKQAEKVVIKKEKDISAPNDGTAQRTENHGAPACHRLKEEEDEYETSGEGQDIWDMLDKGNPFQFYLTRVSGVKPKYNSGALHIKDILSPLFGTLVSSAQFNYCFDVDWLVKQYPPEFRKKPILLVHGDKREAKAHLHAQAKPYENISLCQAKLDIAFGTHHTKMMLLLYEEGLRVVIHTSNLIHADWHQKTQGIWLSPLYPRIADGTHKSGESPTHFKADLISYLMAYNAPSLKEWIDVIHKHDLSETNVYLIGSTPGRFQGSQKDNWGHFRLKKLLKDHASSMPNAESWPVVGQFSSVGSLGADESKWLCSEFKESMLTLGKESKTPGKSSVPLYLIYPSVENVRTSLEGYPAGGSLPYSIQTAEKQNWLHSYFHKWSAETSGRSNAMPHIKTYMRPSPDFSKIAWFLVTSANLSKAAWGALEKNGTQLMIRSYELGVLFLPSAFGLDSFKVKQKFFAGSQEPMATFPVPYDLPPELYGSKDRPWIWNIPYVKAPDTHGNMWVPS

For `COc1cc2c(=O)n(CCN(C)C)c3c4cc5c(cc4ccc3c2cc1OCCN1CCOCC1)OCO5`, the Activity (HCT-116 [1]) was “inactive”, the Activity (HCT-116 [2]) was 27.6% and the Activity [3] was 11.88%. For the same compound, the Activity (HCT-116 [4]) was “Active”, the Activity [5] was “Non-toxic” and the Activity [6] was “Non-toxic”. The Activity (HCT-116 [7]) was “Active”, the Activity (HCT-116 [8]) was 19.85% and the CI (HCT-116 [9]) was 0.46. The Activity (HCT-116 [10]) was 77%, the Activity (HCT-116 [11]) was “Active” and the pIC50 [12] was 5.11. For the same compound, the Activity (HCT-116 [13]) was 28%, the Activity (HCT-116 [14]) was 60% and the AUC(0-inf) [15] was 291 ng·h/mL. The Activity [16] was “Non-toxic”, the Activity (HCT-116 [17]) was “Active” and the Activity (HCT-116 [18]) was “Active”. The AUC(0-t) at 24 h [19] was 247 ng·h/mL, the Activity (HCT-116 [20]) was 25.64% and the Activity [21] was “Non-toxic”. The Activity (HCT-116 [22]) was “Active”, the Activity [23] was “Active; Thermal Melting Curve Of Tdp1 Protein Shifted Left” and the Activity [24] was “Non-toxic”. The Activity (HCT-116 [25]) was “Active”, the TGI (HCT-116 [26]) was “inactive” and the Activity (HCT-116 [27]) was “Active”. For the same compound, the Activity (HCT-116 [28]) was 5.99%, the Activity (HCT-116 [29]) was “Active” and the TGI (HCT-116 [30]) was “Active”. The Activity (HCT-116 [31]) was 23.04%, the Activity (HCT-116 [32]) was “inactive” and the Activity (A549) was “inactive”.

Reference: ChEMBL document CHEMBL6134907, “Synthesis of 5,9- and 5,8-Diaminoalkoxy Substituted Benzophenanthridinone Analogues as Tyrosyl-DNA Phosphodiesterase 1 Inhibitors and Their Radiosensitizing Activity” (J Med Chem, 2025)
